Laboratory results as given in ChEMBL document CHEMBL1201862, “PubChem BioAssay data set” (2004).
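48-hour exposure; five concentrations; linearly interpolated endpoints. Abbreviation: GI50, concentration required for 50% inhibition of growth.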 Activity calls are given as the source filed them. Rule as the data show it: active = GI50 up to about 1.1 µM and inactive = higher.

How the values were obtained:
Test in all cases: inhibition of tumour cell growth, NCI panel, 48 h
A498 = test system: A498
CAKI-1 = test system: CAKI-1
HL-60 = test system: HL-60
Hs-578T = test system: Hs-578T
KM12 = test system: KM12
MCF7 = test system: MCF7
MDA-MB-231 = test system: MDA-MB-231
MDA-MB-435 = test system: MDA-MB-435
Malme-3M = test system: Malme-3M
NCI-H460 = test system: NCI-H460
OVCAR-8 = test system: OVCAR-8
SF-295 = test system: SF-295
SN12C = test system: SN12C
SNB-75 = test system: SNB-75
SW-620 = test system: SW-620
TK-10 = test system: TK-10
UACC-257 = test system: UACC-257
UACC-62 = test system: UACC-62
K562 = test system: K562
RXF 393 = test system: RXF 393

Measured: GI50

CN(C)c1ccc(/C=N/n2c(-c3ccccc3)nc3ccccc3c2=O)cc1
inactive: A498 > 100 µM | CAKI-1 29.7 µM | HL-60 40 µM | Hs-578T 20 µM | KM12 24.8 µM | MCF7 > 100 µM | MDA-MB-231 30 µM | MDA-MB-435 79.4 µM | Malme-3M > 100 µM | NCI-H460 35.4 µM | OVCAR-8 41.6 µM | SF-295 > 100 µM | SN12C 80.9 µM | SNB-75 24.4 µM | SW-620 > 100 µM | TK-10 81.7 µM | UACC-257 > 100 µM | UACC-62 58.9 µM

COC(=O)CN(CC(=O)NCCCBr)C1CCCCC1N(CC(=O)OC)CC(=O)OC (centres undefined)
inactive: A498 > 100 µM | CAKI-1 > 100 µM | HL-60 > 100 µM | Hs-578T 53.7 µM | K562 > 100 µM | KM12 > 100 µM | MCF7 > 100 µM | MDA-MB-231 > 100 µM | MDA-MB-435 > 100 µM | NCI-H460 > 100 µM | OVCAR-8 > 100 µM | SF-295 > 100 µM | SN12C > 100 µM | SNB-75 19.1 µM | SW-620 > 100 µM | TK-10 > 100 µM | UACC-257 > 100 µM | UACC-62 > 100 µM

Cc1ccc(C)c(C(=N)c2ccccc2Cc2ccccc2)c1
inactive: A498 21.7 µM | CAKI-1 22.6 µM | HL-60 18.5 µM | Hs-578T 5.42 µM | K562 17.9 µM | KM12 20.2 µM | MCF7 15.7 µM | MDA-MB-231 22.8 µM | MDA-MB-435 17.9 µM | Malme-3M 13 µM | NCI-H460 14.7 µM | OVCAR-8 31.7 µM | RXF 393 20 µM | SF-295 20 µM | SN12C 17.3 µM | SW-620 31.2 µM | TK-10 47.9 µM | UACC-257 22.9 µM | UACC-62 14.2 µM

Cc1cc(NC(=O)C(=O)Cc2nc3ccccc3s2)ccc1Cl
inactive: A498 > 100 µM | CAKI-1 > 100 µM | Hs-578T > 100 µM | K562 > 100 µM | KM12 > 100 µM | MCF7 > 100 µM | MDA-MB-231 > 100 µM | MDA-MB-435 > 100 µM | Malme-3M > 100 µM | NCI-H460 > 100 µM | OVCAR-8 > 100 µM | RXF 393 > 100 µM | SF-295 > 100 µM | SN12C > 100 µM | SNB-75 > 100 µM | SW-620 > 100 µM | TK-10 > 100 µM | UACC-257 > 93.3 µM | UACC-62 > 100 µM

O=C(O)CCCCCNC(=O)CCC(CN(CC(=O)OCc1ccccc1)CC(=O)OCc1ccccc1)N(CC(=O)OCc1ccccc1)CC(=O)OCc1ccccc1 (centres undefined)
inactive: A498 17.9 µM | CAKI-1 18.3 µM | HL-60 15 µM | Hs-578T 20.5 µM | K562 12.5 µM | KM12 17.6 µM | MCF7 19.4 µM | MDA-MB-231 19.5 µM | MDA-MB-435 19.4 µM | Malme-3M 19.2 µM | NCI-H460 30.4 µM | OVCAR-8 16.5 µM | RXF 393 14.7 µM | SF-295 17.3 µM | SN12C 18.4 µM | SW-620 22.1 µM | TK-10 16.3 µM | UACC-257 18.8 µM | UACC-62 16.7 µM

CSC(SC)=C1CC(=O)Nc2ccccc2C1=O
inactive: A498 > 100 µM | CAKI-1 34.1 µM | HL-60 27.7 µM | Hs-578T 63.7 µM | K562 27.7 µM | KM12 > 100 µM | MCF7 47.6 µM | MDA-MB-231 > 100 µM | MDA-MB-435 44.8 µM | Malme-3M 37.4 µM | NCI-H460 > 100 µM | OVCAR-8 > 100 µM | RXF 393 18.6 µM | SF-295 > 100 µM | SN12C 63.1 µM | TK-10 37 µM | UACC-257 23.6 µM | UACC-62 24.6 µM

Cc1cc(-c2ccc(C(=O)O)[nH]2)on1
inactive: A498 > 100 µM | CAKI-1 79.1 µM | Hs-578T 49.2 µM | K562 56 µM | KM12 > 100 µM | MCF7 39 µM | MDA-MB-231 > 100 µM | MDA-MB-435 6.98 µM | Malme-3M 38.2 µM | NCI-H460 40.6 µM | OVCAR-8 61.4 µM | RXF 393 74.8 µM | SF-295 47.3 µM | SNB-75 44.3 µM | SW-620 30.1 µM | TK-10 > 100 µM | UACC-257 > 100 µM | UACC-62 48 µM

CC1=NC(=Cc2ccccc2O)C(=O)N1n1c(-c2ccccc2)nc2ccccc2c1=O
inactive: A498 62.8 µM | HL-60 35.6 µM | Hs-578T 51.1 µM | K562 30.5 µM | KM12 67 µM | MCF7 25.6 µM | MDA-MB-231 33.2 µM | MDA-MB-435 46.9 µM | Malme-3M 80.5 µM | NCI-H460 30.3 µM | OVCAR-8 33.7 µM | RXF 393 31 µM | SF-295 37.3 µM | SN12C 39.9 µM | SNB-75 34.1 µM | SW-620 49.1 µM | TK-10 39.4 µM | UACC-257 41.9 µM | UACC-62 14.3 µM

CC12CCC(Br)C(C)(C)C1CC=C1C(=O)OCC1O2 (centres undefined)
inactive: A498 12 µM | CAKI-1 11.6 µM | HL-60 1.84 µM | Hs-578T 10.9 µM | K562 12.7 µM | KM12 14.2 µM | MCF7 6.07 µM | MDA-MB-231 14.4 µM | MDA-MB-435 12 µM | NCI-H460 14.6 µM | OVCAR-8 11.6 µM | RXF 393 11.1 µM | SF-295 15.8 µM | SN12C 18.5 µM | SNB-75 15.5 µM | SW-620 16.7 µM | TK-10 14 µM | UACC-257 12.4 µM | UACC-62 8.59 µM

C[n+]1c2ccccc2c(C(=O)Nc2ccc(S(=O)(=O)N=C(N)N)cc2)c2ccccc21
inactive: A498 > 100 µM | CAKI-1 > 100 µM | Hs-578T > 100 µM | K562 > 100 µM | KM12 > 100 µM | MCF7 > 100 µM | MDA-MB-231 23.2 µM | MDA-MB-435 > 100 µM | Malme-3M > 100 µM | NCI-H460 > 100 µM | OVCAR-8 > 100 µM | SF-295 > 100 µM | SN12C > 100 µM | SNB-75 > 100 µM | SW-620 > 100 µM | TK-10 > 100 µM | UACC-257 > 100 µM | UACC-62 > 100 µM

COC1=CC(=O)C2=C(C1=O)[C@H]1CC[C@]3(C)[C@@H](O)CC[C@H]3[C@@H]1CC2
inactive: A498 52.8 µM | CAKI-1 25 µM | HL-60 13 µM | Hs-578T 19.9 µM | K562 28.9 µM | KM12 18.4 µM | MCF7 17 µM | MDA-MB-231 2.21 µM | MDA-MB-435 17.9 µM | NCI-H460 18.3 µM | OVCAR-8 17.8 µM | RXF 393 20.8 µM | SF-295 16.7 µM | SN12C 17 µM | SNB-75 17.9 µM | SW-620 32.7 µM | TK-10 27.9 µM | UACC-257 16.4 µM | UACC-62 17.5 µM

O=C(Nc1nc(C23CC4CC(CC(C4)C2)C3)cs1)c1cc2ccc(O)cc2oc1=O
inactive: A498 10.7 µM | CAKI-1 19.6 µM | HL-60 10.3 µM | Hs-578T 14.5 µM | K562 4.88 µM | KM12 6.05 µM | MCF7 14.1 µM | MDA-MB-231 6.04 µM | MDA-MB-435 8.38 µM | Malme-3M 12 µM | NCI-H460 6.5 µM | OVCAR-8 6.67 µM | RXF 393 16.4 µM | SF-295 16.5 µM | SN12C 11.2 µM | SW-620 10.3 µM | TK-10 26.8 µM | UACC-257 15.6 µM

CCOC(=O)C1(C(=O)OCC)COS(=O)OC1
inactive: A498 > 100 µM | Hs-578T 83.6 µM | K562 21.4 µM | KM12 28.7 µM | MCF7 19.1 µM | MDA-MB-231 16.9 µM | MDA-MB-435 36.7 µM | NCI-H460 21.3 µM | OVCAR-8 45.1 µM | RXF 393 18.3 µM | SF-295 > 100 µM | SN12C > 100 µM | SNB-75 79.1 µM | SW-620 18.6 µM | TK-10 > 100 µM | UACC-257 > 100 µM

O=c1[nH]c2ccccc2c(=O)n1/N=C\c1ccccc1O
inactive: A498 > 100 µM | CAKI-1 > 100 µM | HL-60 36.1 µM | Hs-578T 32.3 µM | K562 > 100 µM | KM12 30.5 µM | MCF7 > 100 µM | MDA-MB-231 > 100 µM | MDA-MB-435 > 100 µM | NCI-H460 > 100 µM | SF-295 > 100 µM | SN12C > 100 µM | SNB-75 36.4 µM | SW-620 > 100 µM | TK-10 > 100 µM | UACC-257 > 100 µM | UACC-62 > 100 µM

Cc1c(C(=O)NNc2ccccc2)n2c(S)nnc2c2ccccc12
inactive: A498 > 100 µM | CAKI-1 > 100 µM | HL-60 > 100 µM | Hs-578T > 100 µM | K562 > 100 µM | KM12 > 100 µM | MCF7 > 100 µM | MDA-MB-231 > 100 µM | MDA-MB-435 > 100 µM | NCI-H460 > 100 µM | OVCAR-8 > 100 µM | RXF 393 82.2 µM | SF-295 54.6 µM | SN12C > 100 µM | SNB-75 > 100 µM | SW-620 > 100 µM | TK-10 > 100 µM | UACC-257 > 100 µM | UACC-62 > 100 µM
